Data reported in PubChem BioAssay (NCI).
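Method: 48-hour compound exposure of cells in 96-well plates, five concentrations, linear interpolation of endpoints. GI50 = concentration required for 50% inhibition of growth. TGI: concentration producing complete growth inhibition.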

Legend:
Assay in all cases: inhibition of tumour cell growth, NCI panel, 48 h
HT29 colon = test system: HT29 colon
SF-295 CNS = test system: SF-295 CNS
U251 CNS = test system: U251 CNS
HOP-62 NSCLC = test system: HOP-62 NSCLC
SF-268 CNS = test system: SF-268 CNS
HCC-2998 colon = test system: HCC-2998 colon
SNB-19 CNS = test system: SNB-19 CNS
MCF7 breast = test system: MCF7 breast
OVCAR-3 ovarian = test system: OVCAR-3 ovarian
MALME-3M melanoma = test system: MALME-3M melanoma
786-0 renal = test system: 786-0 renal
DU-145 prostate = test system: DU-145 prostate
A549 NSCLC = test system: A549 NSCLC
NCI-H460 lung = test system: NCI-H460 lung
HOP-92 NSCLC = test system: HOP-92 NSCLC
LOX IMVI melanoma = test system: LOX IMVI melanoma
NCI/ADR-RES ovarian = test system: NCI/ADR-RES ovarian
RPMI-8226 leukemia = test system: RPMI-8226 leukemia
HL-60(TB) leukemia = test system: HL-60(TB) leukemia
HCT-15 colon = test system: HCT-15 colon
MOLT-4 leukemia = test system: MOLT-4 leukemia
UO-31 renal = test system: UO-31 renal
SK-OV-3 ovarian = test system: SK-OV-3 ovarian
SNB-75 CNS = test system: SNB-75 CNS
COLO 205 colon = test system: COLO 205 colon
M14 melanoma = test system: M14 melanoma
T-47D breast = test system: T-47D breast
ACHN renal = test system: ACHN renal
OVCAR-4 ovarian = test system: OVCAR-4 ovarian
KM12 colon = test system: KM12 colon
UACC-257 melanoma = test system: UACC-257 melanoma
CCRF-CEM leukemia = test system: CCRF-CEM leukemia
SF-539 CNS = test system: SF-539 CNS
SR leukemia = test system: SR leukemia
A498 renal = test system: A498 renal
EKVX NSCLC = test system: EKVX NSCLC
OVCAR-5 ovarian = test system: OVCAR-5 ovarian
SW-620 colon = test system: SW-620 colon
CAKI-1 renal = test system: CAKI-1 renal
MDA-MB-231 breast = test system: MDA-MB-231 breast
SN12C renal = test system: SN12C renal
HCT-116 colon = test system: HCT-116 colon
SK-MEL-28 melanoma = test system: SK-MEL-28 melanoma
NCI-H23 lung = test system: NCI-H23 lung
UACC-62 melanoma = test system: UACC-62 melanoma
SK-MEL-2 melanoma = test system: SK-MEL-2 melanoma
RXF 393 renal = test system: RXF 393 renal
TK-10 renal = test system: TK-10 renal
BT-549 breast = test system: BT-549 breast
SK-MEL-5 melanoma = test system: SK-MEL-5 melanoma
K-562 leukemia = test system: K-562 leukemia
NCI-H226 lung = test system: NCI-H226 lung
NCI-H522 lung = test system: NCI-H522 lung
PC-3 prostate = test system: PC-3 prostate
IGROV1 ovarian = test system: IGROV1 ovarian
OVCAR-8 ovarian = test system: OVCAR-8 ovarian
MDA-MB-435 = test system: MDA-MB-435

Compound: Cn1c(-c2c(N)n(CCCN3CCOCC3)c3nc(C#N)c(C#N)nc23)nc2ccccc21
- TGI (HT29 colon): > 72.4 µM
- GI50 (SF-295 CNS): 19.6 µM
- TGI (SF-295 CNS): > 58.1 µM
- GI50 (U251 CNS): 9.7 µM
- TGI (U251 CNS): > 63.8 µM
- GI50 (HOP-62 NSCLC): 20.6 µM
- TGI (HOP-62 NSCLC): 77.6 µM
- GI50 (SF-268 CNS): 7.16 µM
- TGI (SF-268 CNS): 62.2 µM
- GI50 (HCC-2998 colon): 20.1 µM
- TGI (HCC-2998 colon): 40 µM
- GI50 (SNB-19 CNS): 23.8 µM
- TGI (SNB-19 CNS): > 100 µM
- GI50 (MCF7 breast): 1.48 µM
- TGI (MCF7 breast): > 43.8 µM
- GI50 (OVCAR-3 ovarian): 1.8 µM
- TGI (OVCAR-3 ovarian): 13.4 µM
- GI50 (MALME-3M melanoma): 31.9 µM
- TGI (MALME-3M melanoma): > 83.7 µM
- GI50 (786-0 renal): 24.7 µM
- TGI (786-0 renal): > 69 µM
- GI50 (DU-145 prostate): 3.68 µM
- TGI (DU-145 prostate): 29.2 µM
- GI50 (A549 NSCLC): 22.5 µM
- TGI (A549 NSCLC): 46.3 µM
- GI50 (NCI-H460 lung): > 42.5 µM
- TGI (NCI-H460 lung): > 64.3 µM
- GI50 (HOP-92 NSCLC): 2.73 µM
- TGI (HOP-92 NSCLC): 49.8 µM
- GI50 (LOX IMVI melanoma): 11.3 µM
- TGI (LOX IMVI melanoma): > 52.5 µM
- GI50 (NCI/ADR-RES ovarian): > 28.3 µM
- TGI (NCI/ADR-RES ovarian): > 100 µM
- GI50 (RPMI-8226 leukemia): 0.909 µM
- TGI (RPMI-8226 leukemia): > 52.7 µM
- GI50 (HL-60(TB) leukemia): 0.704 µM
- TGI (HL-60(TB) leukemia): 2.08 µM
- TGI (HCT-15 colon): > 53.4 µM
- GI50 (MOLT-4 leukemia): 6.73 µM
- TGI (MOLT-4 leukemia): > 67.6 µM
- GI50 (UO-31 renal): 6.36 µM
- TGI (UO-31 renal): 55.6 µM
- GI50 (SK-OV-3 ovarian): 51.7 µM
- TGI (SK-OV-3 ovarian): > 100 µM
- GI50 (SNB-75 CNS): 4.34 µM
- TGI (SNB-75 CNS): 25 µM
- GI50 (COLO 205 colon): > 42.8 µM
- TGI (COLO 205 colon): > 61.7 µM
- GI50 (M14 melanoma): > 100 µM
- TGI (M14 melanoma): > 100 µM
- GI50 (T-47D breast): 26.2 µM
- TGI (T-47D breast): > 69.5 µM
- GI50 (ACHN renal): 41.7 µM
- TGI (ACHN renal): > 100 µM
- GI50 (OVCAR-4 ovarian): 17.9 µM
- TGI (OVCAR-4 ovarian): > 100 µM
- GI50 (KM12 colon): 12.4 µM
- TGI (KM12 colon): 31.4 µM
- GI50 (UACC-257 melanoma): 25.7 µM
- TGI (UACC-257 melanoma): > 100 µM
- GI50 (CCRF-CEM leukemia): 2.69 µM
- TGI (CCRF-CEM leukemia): > 28.9 µM
- GI50 (SF-539 CNS): 1.85 µM
- TGI (SF-539 CNS): 7 µM
- GI50 (SR leukemia): 2.66 µM
- TGI (SR leukemia): > 26.6 µM
- GI50 (A498 renal): 39.4 µM
- TGI (A498 renal): 92.5 µM
- GI50 (EKVX NSCLC): > 57 µM
- TGI (EKVX NSCLC): > 100 µM
- GI50 (OVCAR-5 ovarian): > 77.7 µM
- TGI (OVCAR-5 ovarian): > 100 µM
- GI50 (SW-620 colon): 1.74 µM
- TGI (SW-620 colon): > 45 µM
- GI50 (CAKI-1 renal): 7.52 µM
- TGI (CAKI-1 renal): > 49.6 µM
- GI50 (MDA-MB-231 breast): 7.87 µM
- TGI (MDA-MB-231 breast): > 53.1 µM
- GI50 (SN12C renal): 8.85 µM
- TGI (SN12C renal): > 80.2 µM
- GI50 (HCT-116 colon): 4.03 µM
- TGI (HCT-116 colon): > 33.4 µM
- GI50 (SK-MEL-28 melanoma): 3.03 µM
- TGI (SK-MEL-28 melanoma): 11.8 µM
- GI50 (NCI-H23 lung): 27 µM
- TGI (NCI-H23 lung): > 81.9 µM
- GI50 (UACC-62 melanoma): > 34.5 µM
- TGI (UACC-62 melanoma): > 100 µM
- GI50 (SK-MEL-2 melanoma): 45.3 µM
- TGI (SK-MEL-2 melanoma): > 100 µM
- GI50 (RXF 393 renal): 16.4 µM
- TGI (RXF 393 renal): 45 µM
- GI50 (TK-10 renal): 32.7 µM
- TGI (TK-10 renal): 97.3 µM
- GI50 (BT-549 breast): 16.1 µM
- TGI (BT-549 breast): > 64.5 µM
- TGI (SK-MEL-5 melanoma): > 44.9 µM
- TGI (K-562 leukemia): > 74.7 µM
- GI50 (NCI-H226 lung): 27.8 µM
- TGI (NCI-H226 lung): > 52.9 µM
- GI50 (NCI-H522 lung): 26.8 µM
- TGI (NCI-H522 lung): > 100 µM
- GI50 (PC-3 prostate): 3.82 µM
- TGI (PC-3 prostate): > 100 µM
- GI50 (IGROV1 ovarian): > 100 µM
- TGI (IGROV1 ovarian): > 100 µM
- GI50 (OVCAR-8 ovarian): 4.99 µM
- TGI (OVCAR-8 ovarian): > 100 µM
- GI50 (MDA-MB-435): > 100 µM
- TGI (MDA-MB-435): > 100 µM
